Laboratory results published in patent US10166211B1, “Nitric oxide releasing compound, pharmaceutical composition, use and synthesis method thereof” (NATIONAL CHIAO TUNG UNIVERSITY, priority 2017, dated 2019).

Assays:
[1] = test system: EAHY926 cells; assay: Wound healing assay (in vitro scratch); format: cell-based, human; details: EAHY926, 7.8 μM, 1 mm wide line, 24th hour, FIGS. 9A-9I
Method: (§1) In the present disclosure, the cell line for the cell experiment is EAHY926 (human vascular endothelial cell line), and the mouse strain for the animal experiment is BALB/c Nude mouse.
EAHY926 cells were seeded in cell culture plates at 37° C. […] A 1 millimeter (mm) wide line was scraped off in a culture plate, and images of the culture were taken within the first hour and the 24th hour to record and quantify the percentage of wound healing.

[2] = test system: EAHY926 cells; assay: Cell viability (MTT) of the cell cultures of the wound healing test; format: cell-based, human; details: EAHY926, 7.8 μM, FIG. 11
Source text: (§2) In this experiment, 3-(4,5-cimethylthiazol-2-yl)-2,5-diphenyl tetrazolium bromide (also called MTT) was used for testing cell viability. MTT is a yellow compound and a dye that accepts hydrogen ions and acts on the respiratory chain of living cell mitochondria. Under the action of succinate dehydrogenase (SDH) and cytochrome C, the tetrazolium ring of MTT will be cracked to generate blue color crystals. The formation of crystals is proportional to the number of living cells (in dead cells, because there is no active succinate dehydrogenase, MTT cannot be reduced). The O.D value can indirectly represent cell viability because of the MTT reduction ability of living cells.
In the present experimental example, then the cell viability was assayed by adding MTT reagent to the various cell cultures of wound healing test. The results are shown in FIG. 11, among all of the groups, the group treated with RRE-1 had the highest cell viability. The result corresponds to the result of FIG. 4. In FIG. 11, the effects of cell viability were ranked as RRE-1>DPTA>MAHMA. The trend is similar to the result of FIG. 10.

[3] = test system: TIE-2; assay: Western blot assay, TIE-2 expression; format: cell-based, human; details: EAHY926, 7.8 μM, 24 hours, FIG. 12
Method: (§3) In the literature, nitric oxide releasing agents have the potential for promoting angiogenesis and wound healing in vivo, and are also clinically useful agents that can effectively promote the expression of vascular endothelial growth factor receptor 2 (VEGFR2). Therefore, this experiment intended to test the effect of the respective various nitric oxide releasing agents on the expression of angiogenesis-related proteins (e.g., TIE-2, and VEGFR-2).
(§4) EAHY926 cells were seeded in cell culture dishes at 37° C. […] After 24 hours incubation, the cultures were washed with PBS three times and added 250 microliters (μL) of cell lysis buffer, then the cells were scraped and the proteins of the cells were extracted for Western blot experiment.

[4] = test system: EAHY926 cells; assay: Cell development index assay (Angiogenesis Analyzer for ImageJ); format: cell-based, human; details: EAHY926, 7.8 μM, 24th hour; for numbers of endothelial junctions (rank of effects): FIG. 7A; for numbers of endothelial meshes (rank of effects): FIG. 7B; for total branching lengths (rank of effects): FIG. 7C
Method: as §1
EAHY926 cells were seeded in cell culture plates at 37° C. […] Microscopic images were taken within the first hour and the 24th hour after the addition of nitric oxide releasing agents, and the images were analyzed by “Angiogenesis Analyzer for ImageJ” software for analyzing cell development index. The analyzed cell development parameters include cell meshes, cell junctions and cell branches.
Please refer to FIGS. 5A to 5H and FIGS. 6A to 6H. In the analysis of cell development, the gray lines were represented as cell branches of the cell-cell junction, and the more lines mean more growth of the cells. In addition, when the cells were more developed because they had more cell branches, the cells were represented by white lines. As the degree of cell development increased, cell junctions (dark gray dots) became more. Further, the cells enclosed multiple circles (black lines) which were called cell meshes.

[5] = test system: zebrafish with fluorescence gene Tg (fli1: EGFP) y1; assay: In vivo angiogenesis assay in zebrafish; details: 7.8 μM
Method: In this experiment, zebrafish with fluorescence gene Tg (fli1: EGFP) y1 were used for in vivo angiogenesis analysis. The zebrafish nutrient solutions were respectively added with the respective various nitric oxide releasing agents at 7.8 μM concentration. The zebrafish were incubated with nitric oxide releasing agents for 24 to 48 hours. The confocal microscopy images were taken at the beginning, the 24th hour, and the 48th hour after incubation, and semi-quantitative analysis of neovascularization in zebrafish oocysts was performed.
FIGS. 14A to 14E show images taken within the first hour after addition of the nitric oxide releasing agents. FIGS. 15A to 15E are images taken within the 24th hour after addition of the nitric oxide releasing agents. FIGS. 16A to 16E are images taken within the 48th hour after addition of nitric oxide releasing agents. Neovascularization in the zebrafish oocyst area is indicated by the white arrows.

[6] = test system: VEGFR-2; assay: Western blot assay, VEGFR-2 expression; format: cell-based, human; details: EAHY926, 7.8 μM, 24 hours, FIG. 12
Method: as §3, §4

[7] = test system: Immunodeficient nude mice; assay: In vivo angiogenesis assay (DIVAA) in mice; design: species or system mouse; details: soft tubes implanted in the back, 7.8 μM, twenty days, FIG. 13
Source text: as §1
Immunodeficient nude mice (6 in each group) were fixed on the operating table and anesthetized (1-3% isoflurane/100% oxygen, flow rate 1 L/min). After the mice were fixed, two 1 cm incisions were respectfully cut on the left and right back of the mice with a surgical knife. Soft tubes containing mixtures of cell nutrient agents and 7.8 μM of respective nitric oxide releasing agents were prepared. These soft tubes were implanted into the back of the mice, then the wounds were washed with normal saline and were stitched. After 20 days, the soft tubes were removed and the hemoglobins within the soft tubes were released. The total amounts of hemoglobin were analyzed by ELISA analyzer for obtaining the correlation parameters of angiogenesis.
The control group was the conditioned of the soft tube without nitric oxide releasing agents.

[8] = test system: chicken embryos; assay: Chicken chorioallantoic membrane assay (CAM); format: in vivo; details: 7.8 μM injected into eggs after 6 days incubation, 2 days of culture, FIG. 20
Method: In this experimental example, the insemination eggs were placed on the egg rack and the eggs' gas chamber were placed upwards in the hatching incubator. After incubation for 6 days, the eggs were screened with an egg detector, and the insemination eggs with hatching embryos were selected. Then, small holes were respectively drilled on the air chamber end (blunt end) and a side of the selected eggs, and 7.8 μM of the respective various nitric oxide releasing agents were injected through the small holes at the blunt end, sterilized filter films were covered on the hole of the air chamber, and then ventilation tapes were put on. The eggs were continuously incubated in the incubator. After 2 days of culture, the eggs were poked and placed in Petri dishes to observe and recorded by a camera.
The condition of the control group was the eggs with no addition of nitric oxide releasing agents.

[9] = test system: EAHY926 cells; assay: Cell viability assay (MTT); format: cell-based, human; details: EAHY926, 24 hours, 37° C., at various concentrations, FIG. 4
Source text: as §1, §2

Compound	effect on wound healing (images) [1]	cell viability (MTT) after wound healing test [2]	expression of protein TIE-2 (Western blot) [3]	numbers of endothelial junctions (rank of effects) [4]	numbers of endothelial meshes (rank of effects) [4]	total branching lengths (rank of effects) [4]	angiogenesis (neovascularization in zebrafish oocyst area) ([5]; 24 hours, FIG. 17)	expression of protein VEGFR-2 (Western blot) [6]	angiogenesis inside the soft tubes (total amounts of hemoglobin) [7]	angiogenesis of chicken embryos (CAM) [8]	angiogenesis (neovascularization in zebrafish), overall statement ([5]; 24 to 48 hours)	promotion of cell growth (cell viability, MTT) [9]
1-(hydroxy-NNO-azoxy)-L-proline, disodium salt	more significant effects on wound healing											
NCCCN(CCCN)/[N+]([O-])=N/O [DPTA, (Z)-1-[N-(3-aminopropyl)-N-(3-ammoniopropyl)amino]diazen-1-ium-1,2-diolate]	more significant effects on wound healing	RRE-1>DPTA>MAHMA										
CNCCCCCCN(C)/[N+]([O-])=N/O [MAHMA, (Z)-1-[N-Methyl-N-[6-(N-methylammoniohexyl)amino]]diazen-1-ium-1,2-diolate]		RRE-1>DPTA>MAHMA	only induced a small amount	RRE-1>VEGF>Spermine>MAHA	RRE-1>VEGF>MAHMA>Spermine	RRE-1>Spermine>VEGF>MAHMA	most effective	only induced a small amount				
NCCCNCCCCNCCCN [Spermine]	more significant effects on wound healing		only induced a small amount	RRE-1>VEGF>Spermine>MAHA	RRE-1>VEGF>MAHMA>Spermine	RRE-1>Spermine>VEGF>MAHMA		only induced a small amount	followed by VEGF and Spermine	similar		
VEGF	more significant effects on wound healing		only induced a small amount	RRE-1>VEGF>Spermine>MAHA	RRE-1>VEGF>MAHMA>Spermine	RRE-1>Spermine>VEGF>MAHMA		only induced a small amount	followed by VEGF and Spermine		not effective as expected	does not work better than other commercially available nitric oxide-releasing agents
